Source: ChEMBL document CHEMBL1201862, “PubChem BioAssay data set” (2004)
Active and inactive are the calls of the source.

Legend:
Kallikrein-7 = Kallikrein-7 (Homo sapiens, UniProt P49862); assay: Fluorescence Intensity-based biochemical primary high throughput dose response assay to identify activators of kallikrein-7 (K7) zymogen.
[1] = cytotoxicity in HEK-293T cells, dose response, cytotoxicity control for TCR NF-kB inhibitor project, luminescence, T-cell screen hits (AID 489026); assay type: functional, cell-based;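 note: cells exposed to compound about 14 hours before the viability readout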
[2] = biological target: T1, Microphthalmia-associated transcription factor (Homo sapiens, UniProt O75030); assay: TRPM1 promoter luciferase signal decrease, dose response, MITF inhibitor project, cell-based, SK-MEL-5, cherry-picked, set 3 (AID 493073); assay type: functional
T1 sequence (O75030 whole entry): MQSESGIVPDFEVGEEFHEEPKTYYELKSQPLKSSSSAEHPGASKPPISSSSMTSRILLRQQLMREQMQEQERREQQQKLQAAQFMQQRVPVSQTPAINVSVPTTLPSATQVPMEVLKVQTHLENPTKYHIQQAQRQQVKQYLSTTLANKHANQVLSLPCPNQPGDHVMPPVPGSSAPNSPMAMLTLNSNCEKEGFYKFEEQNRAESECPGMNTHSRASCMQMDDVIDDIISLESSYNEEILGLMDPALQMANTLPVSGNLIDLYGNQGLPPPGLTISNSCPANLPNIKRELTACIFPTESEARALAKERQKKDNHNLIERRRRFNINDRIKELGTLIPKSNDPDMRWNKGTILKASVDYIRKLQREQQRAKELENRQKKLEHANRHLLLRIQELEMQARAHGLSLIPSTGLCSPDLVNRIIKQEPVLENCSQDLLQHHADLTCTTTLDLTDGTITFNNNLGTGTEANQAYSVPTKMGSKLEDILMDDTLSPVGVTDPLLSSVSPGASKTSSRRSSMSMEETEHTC

cells = assay type: functional
[3] = HepG2 cell cytotoxicity, dose response, cytotoxicity control for non-replicating M. tuberculosis project (AID 489018); assay type: functional; conditions: Mycobacterium tuberculosis
[4] = Vero E6 cell cytotoxicity, dose response, cytotoxicity control for non-replicating M. tuberculosis project, secondary assay (AID 492998); assay type: functional, VeroE6; conditions: Vero C1008
[5] = THP-1 cell cytotoxicity, dose response, cytotoxicity control for non-replicating M. tuberculosis project (AID 489025); assay type: functional
HEK293 [6] = assay: inhibitors of LMP1-driven NF-kB reporter, dose response, cell-based, HEK293, luciferase, cherry-pick (AID 588343); assay type: functional; conditions: Homo sapiens
[7] = non-specific cell cytotoxicity, dose response, cytotoxicity control for PAX8 inhibitor project, plate reader, dry powder samples (AID 743021); assay type: functional, cell-based
Protein skinhead-1 = biological target: T2, Protein skinhead-1 (Caenorhabditis elegans, UniProt P34707); assay type: functional
T2 sequence (P34707 whole entry): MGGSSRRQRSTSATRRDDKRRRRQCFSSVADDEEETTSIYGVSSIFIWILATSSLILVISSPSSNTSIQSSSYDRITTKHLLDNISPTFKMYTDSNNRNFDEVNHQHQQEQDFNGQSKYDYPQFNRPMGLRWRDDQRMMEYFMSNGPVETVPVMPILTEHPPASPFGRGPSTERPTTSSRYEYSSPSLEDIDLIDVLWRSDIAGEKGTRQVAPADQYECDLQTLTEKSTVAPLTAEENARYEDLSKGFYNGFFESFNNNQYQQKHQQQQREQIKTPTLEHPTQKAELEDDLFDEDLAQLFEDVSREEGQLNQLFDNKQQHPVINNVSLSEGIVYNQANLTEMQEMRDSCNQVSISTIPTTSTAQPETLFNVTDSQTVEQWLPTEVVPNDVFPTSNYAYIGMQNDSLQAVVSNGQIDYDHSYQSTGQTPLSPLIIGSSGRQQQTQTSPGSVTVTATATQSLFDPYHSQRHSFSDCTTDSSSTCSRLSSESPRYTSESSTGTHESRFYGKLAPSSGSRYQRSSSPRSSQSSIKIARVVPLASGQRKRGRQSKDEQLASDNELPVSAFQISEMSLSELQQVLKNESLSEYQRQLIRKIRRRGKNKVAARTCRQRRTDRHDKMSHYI

Paired box protein Pax-8 = Paired box protein Pax-8 (Homo sapiens, UniProt Q06710); assay: inhibitors of PAX8-driven TPO luciferase reporter, dose response, RMG-I cells, cherry-pick (AID 687027); assay type: functional, cell-based;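 note: luciferase reporter driven by Pax8 target thyroperoxidase promoter measured by SteadyGlo luminescence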
[8] = biological target: Voltage-gated inwardly rectifying potassium channel KCNH2 (Homo sapiens, UniProt Q12809); conditions: Potency;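 note: confirmatory quantitative high-throughput screen measuring inhibition of hERG channel activity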
CHO = assay: cytotoxicity in TLR9-MyD88 CHO cells, dose response, cytotoxicity control for TLR9-MyD88 binding inhibitor project, cell-based, luminescence (AID 588339); assay type: functional, hamster; conditions: Cricetulus griseus;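 note: CHO cells stably coexpressing TLR9 and MyD88 fusions from primary screen; compound exposure lasted 48 hours before viability readout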
HEK293 [9] = assay: cells; conditions: Homo sapiens
[10] = biological target: T3, RNA-binding protein pos-1 (Caenorhabditis elegans, UniProt G5EF15); assay: inhibitors of POS-1/mex-3 RNA binding, dose response, biochemical, fluorescence polarization (AID 1964);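 note: purified POS-1 fused to maltose binding protein made in E. coli; potency of compounds blocking POS-1 binding to fluorescent RNA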
T3 sequence (G5EF15 whole entry): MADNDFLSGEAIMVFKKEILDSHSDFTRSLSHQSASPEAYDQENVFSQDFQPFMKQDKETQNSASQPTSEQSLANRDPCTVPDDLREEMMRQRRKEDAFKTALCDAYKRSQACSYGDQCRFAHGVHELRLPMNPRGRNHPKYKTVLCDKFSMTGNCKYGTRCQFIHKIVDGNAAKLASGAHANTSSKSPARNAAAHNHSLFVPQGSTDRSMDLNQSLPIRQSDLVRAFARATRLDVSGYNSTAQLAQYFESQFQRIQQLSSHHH

HEK293 [11] = assay: cells; conditions: Homo sapiens; remark: listed apart in the source
[12] = biological target: T4, Zinc finger protein mex-5 (Caenorhabditis elegans, UniProt Q9XUB2); assay: MEX-5/TCR-2 RNA interaction inhibitors, dose response, biochemical, C. elegans, fluorescence polarization (AID 1960)
T4 sequence (Q9XUB2 whole entry): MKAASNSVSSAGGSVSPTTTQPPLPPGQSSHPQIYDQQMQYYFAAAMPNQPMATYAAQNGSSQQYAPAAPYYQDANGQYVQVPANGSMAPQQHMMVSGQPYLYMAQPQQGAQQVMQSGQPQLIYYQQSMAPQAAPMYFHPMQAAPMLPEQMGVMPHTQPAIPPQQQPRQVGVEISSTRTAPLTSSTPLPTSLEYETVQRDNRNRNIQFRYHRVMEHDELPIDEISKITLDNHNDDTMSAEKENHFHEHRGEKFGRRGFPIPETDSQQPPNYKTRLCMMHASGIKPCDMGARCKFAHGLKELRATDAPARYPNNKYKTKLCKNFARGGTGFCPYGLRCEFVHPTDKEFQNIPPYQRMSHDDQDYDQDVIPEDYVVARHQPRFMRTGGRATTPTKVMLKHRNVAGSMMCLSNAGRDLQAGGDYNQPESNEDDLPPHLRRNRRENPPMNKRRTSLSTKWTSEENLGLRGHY

[13] = P. falciparum ATP4 D1247Y mutant growth inhibitors, dose response, NITD609-resistant line, SYBR Green, dry powder (AID 1159571); assay type: functional, cell-based;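 note: parasites synchronized at ring stage by sorbitol before testing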
[14] = P. falciparum 3D7-ScDHODH growth inhibitors, dose response, SYBR Green, dry powder samples (AID 1159570); assay type: functional, cell-based;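 note: parasite growth measured after 72 hours of compound exposure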
[15] = P. falciparum Dd2 growth inhibitors, dose response, SYBR Green, dry powder samples, set 9 (AID 1159568); assay type: functional, cell-based
[16] = HepG2 cell cytotoxicity, dose response, cytotoxicity control, plate reader, dry powder samples (AID 1159569); assay type: functional, cell-based;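 note: inhibitor potency with signal falling toward the positive control level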
[17] = P. falciparum Dd2 growth inhibitors, dose response, SYBR Green, cherry-picked samples (AID 1159567); assay type: functional, cell-based
[18] = P. falciparum Dd2 growth inhibitors, dose response, SYBR Green, dry powder samples (AID 1159566); assay type: functional, cell-based;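 note: potency for growth inhibition with lower SYBR green DNA signal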

Chain of Kallikrein-7 (P49862 whole entry): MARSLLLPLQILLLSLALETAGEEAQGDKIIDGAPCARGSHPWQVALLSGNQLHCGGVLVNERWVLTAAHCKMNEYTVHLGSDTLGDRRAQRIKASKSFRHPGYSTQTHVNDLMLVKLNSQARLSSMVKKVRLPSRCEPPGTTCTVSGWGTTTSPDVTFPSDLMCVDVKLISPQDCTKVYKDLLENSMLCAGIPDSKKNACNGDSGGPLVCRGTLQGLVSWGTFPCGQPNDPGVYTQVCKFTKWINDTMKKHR
Chain of Paired box protein Pax-8 (Q06710 whole entry): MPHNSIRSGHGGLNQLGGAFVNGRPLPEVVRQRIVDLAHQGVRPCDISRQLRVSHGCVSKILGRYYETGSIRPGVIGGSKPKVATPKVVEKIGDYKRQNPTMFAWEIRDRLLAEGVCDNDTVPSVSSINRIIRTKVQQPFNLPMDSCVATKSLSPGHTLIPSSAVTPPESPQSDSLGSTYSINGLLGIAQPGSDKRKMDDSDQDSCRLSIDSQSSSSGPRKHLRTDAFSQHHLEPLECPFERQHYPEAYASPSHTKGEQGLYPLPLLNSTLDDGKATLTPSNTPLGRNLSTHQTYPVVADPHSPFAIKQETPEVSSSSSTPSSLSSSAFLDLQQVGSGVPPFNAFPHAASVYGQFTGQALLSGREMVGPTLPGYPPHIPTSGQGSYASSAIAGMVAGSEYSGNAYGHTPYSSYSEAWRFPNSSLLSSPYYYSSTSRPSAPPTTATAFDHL
Chain of Voltage-gated inwardly rectifying potassium channel KCNH2 (Q12809 whole entry, the tested form may be a part): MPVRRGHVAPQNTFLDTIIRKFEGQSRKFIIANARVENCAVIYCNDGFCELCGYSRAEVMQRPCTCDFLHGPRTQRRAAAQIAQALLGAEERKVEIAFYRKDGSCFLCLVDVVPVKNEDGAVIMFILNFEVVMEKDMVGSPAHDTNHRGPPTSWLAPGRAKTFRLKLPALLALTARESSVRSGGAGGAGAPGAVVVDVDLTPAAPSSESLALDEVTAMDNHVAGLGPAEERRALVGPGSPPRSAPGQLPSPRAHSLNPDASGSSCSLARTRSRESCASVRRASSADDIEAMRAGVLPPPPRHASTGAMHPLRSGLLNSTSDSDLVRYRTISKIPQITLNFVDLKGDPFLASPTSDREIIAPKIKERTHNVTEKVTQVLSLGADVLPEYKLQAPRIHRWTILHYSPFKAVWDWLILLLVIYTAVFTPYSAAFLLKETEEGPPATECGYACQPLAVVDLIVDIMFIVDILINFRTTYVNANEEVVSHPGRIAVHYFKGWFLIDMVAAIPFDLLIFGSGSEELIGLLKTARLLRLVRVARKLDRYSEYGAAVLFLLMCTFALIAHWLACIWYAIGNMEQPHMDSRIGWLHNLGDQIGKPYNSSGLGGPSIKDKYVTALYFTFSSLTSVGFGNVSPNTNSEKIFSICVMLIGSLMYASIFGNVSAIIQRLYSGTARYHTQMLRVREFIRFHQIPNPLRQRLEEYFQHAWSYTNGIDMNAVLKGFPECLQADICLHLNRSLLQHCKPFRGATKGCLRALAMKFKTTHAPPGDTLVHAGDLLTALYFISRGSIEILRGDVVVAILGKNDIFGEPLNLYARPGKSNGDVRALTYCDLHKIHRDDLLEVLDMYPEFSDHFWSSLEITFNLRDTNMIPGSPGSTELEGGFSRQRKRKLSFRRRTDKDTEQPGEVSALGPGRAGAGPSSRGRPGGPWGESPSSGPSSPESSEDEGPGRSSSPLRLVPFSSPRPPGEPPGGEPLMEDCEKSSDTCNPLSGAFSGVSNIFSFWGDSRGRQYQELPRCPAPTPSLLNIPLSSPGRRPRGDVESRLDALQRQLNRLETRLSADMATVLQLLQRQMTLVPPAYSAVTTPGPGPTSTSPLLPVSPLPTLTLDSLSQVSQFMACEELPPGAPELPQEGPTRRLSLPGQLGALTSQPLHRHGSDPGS

With `Cc1c(C2(O)CCCCC2)[nH]c2cnccc12` the EC50 (Kallikrein-7) was > 69.5 µM (inactive).

In the case of `Oc1nc(-c2ccccc2Cl)c2cc(F)ccc2n1`, the EC50 (Kallikrein-7) is reported as > 69.5 µM (inactive).

In the case of `Cc1ccc(O)c(NC(=O)c2cc(-c3ccccc3)on2)c1`, the IC50 [1] is reported as > 80 µM (inactive).

For `Cc1onc(-c2ccccc2)c1C(=O)N/N=C/c1ccc([N+](=O)[O-])s1`, the AC50 [2] was 5.35 µM (active), the IC50 (cells) was 14.9 µM (active) and the CC50 [3] was 18.8 µM (active). The CC50 [4] was 11.4 µM (active) and the CC50 [5] was 13.5 µM (active).

In the case of `O=c1cc(-c2ccccc2)oc2ccc3ccccc3c12` [BETA-NAPHTHOFLAVONE], the AC50 (HEK293 [6]) is reported as 0.646 µM (active), the AC50 [7] is reported as 29.2 µM (active) and the IC50 (Protein skinhead-1) is reported as > 100 µM (inactive). For the same compound, the AC50 (Paired box protein Pax-8) was 5.9 µM (active).

With `COc1ccc(NC(=O)/C=C/c2ccc(Cl)cc2)cc1` the AC50 [8] was 25.1 µM (inconclusive).

In the case of `Nc1ccc2nc(-c3ccccc3)c(-c3ccccc3)nc2c1`, the IC50 (CHO) is reported as > 49.7 µM (inactive), the EC50 (HEK293 [9]) is reported as > 59.6 µM (inactive) and the EC50 [10] is reported as 23.9 µM (inconclusive). For the same compound, the EC50 (HEK293 [11]) was > 59.6 µM (inactive) and the EC50 [12] was 24.9 µM (active).

For `C[C@H]1CN([C@@H](C)CO)C(=O)c2cc(/C=C/c3ccccc3)cnc2O[C@@H]1CN(C)C(=O)C1CCCCC1`, the AC50 [13] was 0.464 µM (active), the AC50 [14] was 0.905 µM (active) and the AC50 [15] was 0.082 µM (active). The AC50 [16] was > 100 µM (inactive), the AC50 [17] was 0.54 µM (active) and the AC50 [18] was 0.291 µM (active).
